A polymer gas permeability compilation

| CH4 permeability [Barrer] | CO2 permeability [Barrer] | H2 permeability [Barrer] | N2 permeability [Barrer] | O2 permeability [Barrer] | Compound |
| --- | --- | --- | --- | --- | --- |
| 121 | 1730 | 1400 | 113 | 374 | *c1c(C)cc2c(c1C)C1c3ccccc3C2c2cc(C)c(N3C(=O)c4ccc(C(c5ccc6c(c5)C(=O)N(*)C6=O)(C(F)(F)F)C(F)(F)F)cc4C3=O)c(C)c21 (repeat unit) |
| 4.19 | 75 |  | 4.49 | 19.7 | *c1cc(C(=O)OCCC(F)(F)C(F)(F)C(F)(F)C(F)(F)C(F)(F)C(F)(F)F)cc(N2C(=O)c3ccc(C(=O)c4ccc5c(c4)C(=O)N(*)C5=O)cc3C2=O)c1 (repeat unit) |
| 0.44 | 17.8 |  | 0.74 | 4.74 | *c1cc(C(=O)OCCC(F)(F)C(F)(F)C(F)(F)C(F)(F)C(F)(F)C(F)(F)F)cc(N2C(=O)c3ccc(C(c4ccc5c(c4)C(=O)N(*)C5=O)(C(F)(F)F)C(F)(F)F)cc3C2=O)c1 (repeat unit) |
| 0.36 | 11 |  | 0.56 | 2.61 | *c1cc(C(=O)OCCC(F)(F)C(F)(F)C(F)(F)C(F)(F)C(F)(F)C(F)(F)F)cc(N2C(=O)c3ccc(Oc4ccc5c(c4)C(=O)N(*)C5=O)cc3C2=O)c1 (repeat unit) |
| 4 | 110 | 130 | 3.8 | 18 | *c1cc(C)c(C)c(N2C(=O)c3ccc(Oc4cc(C)c(Oc5ccc6c(c5)C(=O)N(*)C6=O)c(C)c4C)cc3C2=O)c1C (repeat unit) |
| 0.195 | 7.73 | 28.2 | 0.499 | 3.29 | *c1cc(C)c2c(c1)S(=O)(=O)c1cc(N3C(=O)c4ccc(-c5ccc6c(c5)C(=O)N(*)C6=O)cc4C3=O)cc(C)c1-2 (repeat unit) |
| 1.74 | 73.5 | 156 | 3.27 | 16.5 | *c1cc2c(cc1C)-c1cc(C)c(N3C(=O)c4ccc(C(c5ccc6c(c5)C(=O)N(*)C6=O)(C(F)(F)F)C(F)(F)F)cc4C3=O)cc1S2(=O)=O (repeat unit) |
| 0.244 | 14.1 | 45.4 | 0.37 | 3.29 | *c1cc2c(cc1C)-c1cc(C)c(N3C(=O)c4ccc(S(=O)(=O)c5ccc6c(c5)C(=O)N(*)C6=O)cc4C3=O)cc1S2(=O)=O (repeat unit) |
| 0.16 | 6.7 | 22 | 0.21 | 1.4 | *c1ccc(-c2ccc(N3C(=O)c4ccc(Oc5cc(C(C)(C)C)ccc5Oc5ccc6c(c5)C(=O)N(*)C6=O)cc4C3=O)c(OC)c2)cc1OC (repeat unit) |
| 0.79 | 39.6 |  | 1.2 | 7.62 | *c1ccc(-c2ccc(Oc3ccc(C4(c5ccc(Oc6ccc(-c7ccc(-n8c(=O)c9cc%10c(=O)n(*)c(=O)c%10cc9c8=O)cc7)cc6C(F)(F)F)cc5)c5ccccc5C(=O)N4c4ccccc4)cc3)c(C(F)(F)F)c2)cc1 (repeat unit) |
| 0.62 | 17.1 |  | 0.83 | 4.33 | *c1ccc(-c2ccc(Oc3ccc(C4(c5ccc(Oc6ccc(-c7ccc(N8C(=O)c9ccc(C(=O)c%10ccc%11c(c%10)C(=O)N(*)C%11=O)cc9C8=O)cc7)cc6C(F)(F)F)cc5)c5ccccc5C(=O)N4c4ccccc4)cc3)c(C(F)(F)F)c2)cc1 (repeat unit) |
| 0.84 | 14.6 |  | 0.96 | 4.22 | *c1ccc(-c2ccc(Oc3ccc(C4(c5ccc(Oc6ccc(-c7ccc(N8C(=O)c9ccc(Oc%10ccc%11c(c%10)C(=O)N(*)C%11=O)cc9C8=O)cc7)cc6C(F)(F)F)cc5)c5ccccc5C(=O)N4c4ccccc4)cc3)c(C(F)(F)F)c2)cc1 (repeat unit) |

More lines, now with the values behind:

| Compound | CH4 permeability [Barrer] | CO2 permeability [Barrer] | H2 permeability [Barrer] | N2 permeability [Barrer] | O2 permeability [Barrer] |
| --- | --- | --- | --- | --- | --- |
| *C(=C(*)c1ccc2c(c1)C(C)(C)CC2(C)C)c1cccc(F)c1 (repeat unit) | 27800 | 35200 | 27000 | 12000 | 14300 |
| *C(=C(*)c1ccc2c(c1)C(C)(C)c1cc(Br)ccc1-2)c1ccccc1 (repeat unit) | 3000 | 8000 | 3700 | 1100 | 2000 |
| *c1c(C)cc(Cc2cc(C)c(-n3c(=O)c4cc5c(=O)n(*)c(=O)c5cc4c3=O)c(C)c2)cc1C (repeat unit) | 8.21 | 97.6 |  | 7.08 | 27.4 |
| *c1c(C)cc2c(c1C)C1c3ccccc3C2c2cc(C)c(-n3c(=O)c4cc5c(=O)n(*)c(=O)c5cc4c3=O)c(C)c21 (repeat unit) | 238 | 3360 | 2380 | 180 | 680 |
| *c1c(C)cc2c(c1C)C1c3ccccc3C2c2cc(C)c(-n3c(=O)c4cc5oc6cc7c(cc6oc5cc4c3=O)C3(C(C)C)c4ccccc4C7(C(C)C)c4cc5oc6cc7c(=O)n(*)c(=O)c7cc6oc5cc43)c(C)c21 (repeat unit) | 395 | 5010 | 4140 | 306 | 1150 |
| *c1cc(-c2nc3cc(-c4ccc5[nH]c(*)nc5c4)ccc3[nH]2)cc(C(C)(C)C)c1 (repeat unit) | 0.05 | 1.91 | 10.7 | 0.06 | 0.42 |
| *c1cc(C(c2ccc(C)c(-n3c(=O)c4cc5oc6cc7c(cc6oc5cc4c3=O)C3(CC(C)(C)c4cc5oc6cc8c(=O)n(*)c(=O)c8cc6oc5cc43)CC7(C)C)c2)(C(F)(F)F)C(F)(F)F)ccc1C (repeat unit) | 9 | 210 | 220 | 9 | 39 |
| *c1cc2c(cc1*)C1(C(C)C)c3ccccc3C2(C(C)C)c2cc3c(cc21)Oc1cc2nc(*)c(*)nc2cc1O3 (repeat unit) | 7.27 |  | 1100 | 7.09 | 61 |
| *c1cc2c(cc1O)C1(CC2(C)C)CC(C)(C)c2cc(N3C(=O)C4C(C3=O)C3(Br)C(Br)=C(Br)C4(Br)C4C(=O)N(*)C(=O)C43)c(O)cc21 (repeat unit) | 4.9 | 138 | 274 | 5.3 | 31.2 |
| *c1ccc(*)n1C (repeat unit) | 0.22 | 6.9 |  | 0.33 | 2.04 |
| *c1ccc(-c2ccc(-c3ccc(C(*)(c4ccccc4)C(F)(F)F)cc3)cc2)cc1 (repeat unit) | 13 | 220 | 126 | 9 | 32 |
| *c1ccc(-c2ccc(C(*)(C(F)(F)F)C(F)(F)F)cc2)cc1 (repeat unit) | 34 | 470 | 470 | 41 | 120 |
